Measurements taken from patent US8263615B2, “Bis-heterocyclic imidazolyl compounds” (Novartis AG, priority 2005, dated 2012).

Columns and labels:
[1] = test system: plasma aldosterone; experiment: in vivo suppression of plasma aldosterone levels in ACTH-stimulated rats; parameters: species or system Wistar rats; settings: rat plasma, 4 mg/kg p.o., 2 h after dosing vs 1 h before dosing
Experimental: (§1) The aldosterone- and corticosterone-suppressing activity of herein described compounds may be assessed with the following in vivo protocol.
(§2) Adult male Wistar rats weighing between 250 and 350 grams are kept under the usual 12 hour light and 12 hour dark conditions at a temperature of 23° C.±2° C. On the first day of the experiment, the animals receive a subcutaneous injection of a depot ACTH product in a dose of 1.0 mg/kg weight (SYNACTEN-Depot, Novartis, Basel, CH) 16 hours prior to the administration of a test compound. […] An alternative method to stimulate aldosterone secretion consists in subjecting rats to a low salt diet for 48 hours and applying the diuretic furosemide at 10 mg/kg by subcutaneous or intraperitoneal administration 16 hours, respectively 2 hours prior to the start of the experiment. On the second day of the experiment, the animals are divided into test groups of 5 animals and subjected to a first bleed 1 hour prior to the administration of test compound. Subsequently, and 16 hours after the injection of the ACTH product, the animals receive either vehicle or test compound dissolved in vehicle in a variable dose range from 0.02 to 20 mg/kg by oral gavage. The animals are bled two more times from the vena subclavia under isoflurane anesthesia 2 and 6 hours after dosing. The blood is collected in heparin-treated tubes. The plasma samples are obtained by centrifugation and stored at −20° C. An alternative method to bleed animals time-dependently consists in using animals that are chronically carotid catheterized which allows the periodical sampling of up to 0.2 ml of blood using an AccuSampler (DiLab Europe, Lund, Sweden). The blood sampling with the AccuSampler may occur 1 hour prior to the administration of a test compound and 2, 4, 6, 8, 12, 16 and 24 hours thereafter. The blood samples are anti-coagulated with heparin and centrifuged. The aldosterone and corticosterone concentrations of the plasma samples can be determined with a radioimmunoassay as described above for the in vitro test systems.
(§3) The selective suppression of plasma steroid levels as for instance aldosterone in comparison to corticosterone may serve as a measure for in vivo bioavailability and pharmacodynamic enzyme inhibitory activity of the herein described compounds. The evaluation of the data may occur relative to the application of vehicle or quantitatively by determination of the area under the curve (AUC).

[2] = test system: plasma corticosterone; experiment: in vivo suppression of plasma corticosterone levels in ACTH-stimulated rats; parameters: species or system Wistar rats; settings: rat plasma, 4 mg/kg p.o., 2 h after dosing vs 1 h before dosing
Experimental: as §1, §2, §3

Compound	Aldosterone levels (% change at 2 h) [1] [%]	Corticosterone levels (% change at 2 h) [2] [%]
CC1(C)CCn2cncc2C1c1ccc(C#N)cc1 (stereo not shown) [Example 16, 4-(7,7-Dimethyl-5,6,7,8-tetrahydroimidazo[1,5-a]pyridin-8-yl)benzonitrile]	−21	−3
Fc1ccc(C2CCn3cncc32)cc1F (stereo not shown) [Example 2, 7-(3,4-Difluorophenyl)-6,7-dihydro-5H-pyrrolo[1,2-c]imidazole]	−49	−32
CC(=O)c1ccc(C2CCn3cncc32)cc1 (stereo not shown) [Example 3, 1-[4-(6,7-Dihydro-5H-pyrrolo[1,2-c]imidazol-7-yl)phenyl]ethanone]	−53	−13
O=[N+]([O-])c1ccccc1C1CCCn2cncc21 (stereo not shown) [Example 13, 8-(2-Nitrophenyl)-5,6,7,8-tetrahydroimidazo[1,5-a]pyridine]	−62	0
CSc1ccc(C2CCCn3cncc32)cc1 (stereo not shown) [Example 12, 8-(4-Methylsulphanylphenyl)-5,6,7,8-tetrahydroimidazo[1,5-a]pyridine]	−61	2
